Measurements as given in PubChem BioAssay (NCI).
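Dose response: 5 concentrations. Exposure: 48 h. Format: 96-well plates. Endpoint: linear interpolation; highest concentration if not reached. Definition used: TGI = concentration required for complete inhibition of growth.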

What was measured:
Test in all cases: NCI tumour cell line growth inhibition, 48 h
[1] = test system: K-562 leukemia
[2] = test system: MDA-MB-435
[3] = test system: NCI-H226 lung

Measured: TGI

CCOC(=O)/C=C/CC(C)(C)COC(C)=O
> 10 µM: all assays above
